≈ marks a conversion by molar mass, not a printed value.

The record followed here is ChEMBL document CHEMBL1155572, “Sesquiterpene quinols/quinones from the Micronesian sponge Petrosaspongia metachromia” (J Nat Prod, 2000).

The series is described as follows: Toxicity against brine shrimp. Type of series: organism-based. The conditions noted are these: artemia, in vivo.

With `COC(=O)c1cc(O)c(O)c2c1[C@]1(C)CC[C@H]3C(C)(C)CCC[C@]3(C)[C@H]1C2` [PELOROL], the LC50 – broadly, the concentration lethal to half of the exposed cells or organisms – is 5 µg/mL (≈ 13.4 µM).
